Type in all cases: cell-based, rat
For assay [1], the system named is S2+ InsP3R-1. Put plainly: Potentiation of CCh-induced Ca2+ release after PKA activation (forskolin), S2+ InsP3R-1 constructs in DT-40 3ko cells. The conditions noted are these: for effect of forskolin treatment on CCh-induced [Ca^2+]i peak: 20 μM forskolin, threshold CCh; for Ca^2+ release after PKA activation: S2 + InsP3R-1 constructs, Table 2. As for the experimental part: DT-40 cells lacking all three InsP3 receptor subtypes DT-40 3ko were transfected using electroporation, 350 V and 950 μF. 2×10^7 cells were co-transfected with 25 μg of the InsP3R cDNA, 25 μg of the muscarinic type 3 (M3) receptor, and 4 μg of the red fluorescent protein plasmid pHcRed1-N1. Cells were incubated with DNA in 500 μL of Optimem media on ice for 10 minutes. The cell/DNA mixture was electroporated, incubated on ice for 30 minutes, brought up to 5 ml with Optimem and placed in a 5% C02 incubator at 39° C. for 5 hours. The cells were then centrifuged and resuspended in 12 ml of complete RPMI media. Transfection efficiency was typically ˜20%. Experiments were performed within 32 hours of transfection.
(§1) Transfected DT-40 3ko cells were washed once in a HEPES-buffered physiological saline solution (HEPES-PSS) containing (in mM) 5.5 glucose, 137 NaCl, 0.56 MgCl2, 4.7 KCl, 1 Na2HPO4, 10 HEPES (pH 7.4), 1.2 CaCl2 and 1% w/v Bovine Serum Albumin. Cells were then resuspended in BSA HEPES-PSS with 1 μM Fura-2 (AM), placed on a 15 mm glass coverslip in a low volume perfusion chamber (Warner Instruments) and allowed to adhere for 30 minutes at room temperature. Cells were perfused continually for 10 minutes with HEPES-PSS before experimentation to allow Fura-2 de-esterification. A field of cells for each experiment was chosen that contained a wide range of transfection efficiency based upon the intensity of red fluorescence emitted when excited at 560 nm. [Ca^2+]i imaging was performed essentially as previously described using an inverted epifluorescence Nikon microscope with a 40× oil immersion objective lens (numerical aperture, 1.3). Cells were excited alternately with light at 340 and 380 nm (±10 mn bandpass filters, Chroma) using a monochrometer (TILL Photonics). Fluorescence images were captured and digitized with a digital camera driven by TILL Photonics software. Images were captured every 2 seconds with an exposure of 35 ms and no binning. 340/380 ratio images were calculated online and stored immediately to hard disk.
(§2) The effects of treatment were determined by normalizing the peak change in fluorescence ratio by stimulation following forskolin or 8-Br cGMP exposure to that of stimulation in control HEPES-PSS. Thus, pooled data represents a normalized fold increase over control for the treated trial. Two tailed heteroscedastic t-tests with P values<0.05 were considered to have statistical significance.
Experiments were performed in DT-40 3ko cells transfected with S2^+ InsP3R-1. Since there are no reports of Gαq coupled receptors expressed in DT-40 cells, initial experiments were performed eliciting [Ca^2+]i changes by stimulating the endogenous B cell receptor with α-IgM antibody. […] Thus, in all further experiments, DT-40 3ko cells were co-transfected with the M3 receptor, and HcRed to facilitate identification of transfected cells (inset FIG. 1). Stimulation of M3 receptors with the muscarinic agonist carbachol (CCh), provided a convenient means of stimulating [Ca^2+]i changes, presumably through Gαq-induced activation of phospholipase C and production of InsP3. […] The potentiation was most marked when threshold elevations in [Ca^2+]i were evoked by the initial exposure to CCh and therefore only cells in which the initial CCh treatment evoked a Δ 340/380 ratio of<0.2 ratio units were included for analysis. […] [Ca^2+]i changes were never evoked by CCh treatment in cells transfected with only M3 cDNA in the absence of InsP3R or likewise InsP3R with no M3 cDNA.
The effects of treatment were determined by normalizing the peak change in fluorescence ratio by stimulation following forskolin or 8-Br-cGMP exposure to that of stimulation in control HEPES-PSS. Thus, pooled data represent a normalized fold increase over control for the treated trial. In all cases where statistical significance is indicated, two-tailed heteroscedastic t tests were performed. […]

Assay [2] has as its system S2+ InsP3R-1. Put plainly: Potentiation of CCh-induced Ca2+ release after PKG activation (8-Br cGMP), S2+ InsP3R-1 constructs in DT-40 3ko cells. The note with it: for effect of 8-Br cGMP treatment on CCh-induced Ca^2+ release: 10 μM 8-Br cGMP, threshold CCh; for Ca^2+ release after PKG activation: S2 + InsP3R-1 constructs, Table 2. As for the experimental part: as §1, §2
Similar experiments were performed to assess the effects on Ca^2+ release of phosphorylating InsP3R-1 with PKG. Cells transfected with S2^+ InsP3R-1 together with M3 receptor and HcRed were stimulated with low, threshold concentrations of CCh (25-50 nM) followed by a 10 min treatment with 10 μM 8-Br cGMP, a specific activator of PKG [48]. […] In a similar fashion to PKA activation, this was manifested as an increase in the CCh-induced initial peak (FIG. 4A and pooled data FIG. 4E).
The effects of treatment were determined by normalizing the peak change in fluorescence ratio by stimulation following forskolin or 8-Br-cGMP exposure to that of stimulation in control HEPES-PSS. Thus, pooled data represent a normalized fold increase over control for the treated trial. In all cases where statistical significance is indicated, two-tailed heteroscedastic t tests were performed. P values<0.05 were considered to indicate statistical significance and are denoted by an asterisk in the figures.
Despite these differences, experiments were performed to define further the phosphorylation sites important for regulation of Ca^2+ release by PKG. […] In contrast, in cells expressing S2+SE no effect on CCh-induced Ca^2+ release following activation of PKG was observed (FIG. 23C and pooled data in FIG. 23D).

The test system of assay [3] is S2− InsP3R-1. Put plainly: Potentiation of CCh-induced Ca2+ release after PKG activation (8-Br cGMP), S2− InsP3R-1 constructs in DT-40 3ko cells. As for the experimental part: as §1, with “Cells were excited alternately with light at 340 and 380 nm (±10 mn bandpass filters, Chroma) using a monochrometer (TILL Photonics).” left out, “Images were captured every 2 seconds with an exposure of 35 ms and no binning.” left out
The effects of treatment were determined by normalizing the peak change in fluorescence ratio by stimulation following forskolin or 8-Br cGMP exposure to that of stimulation in control HEPES-PSS. […]

The source of these data is patent publication US20080039410A1, “Inositol 1,4,5-Trisphosphate Receptor Mutants and Uses Thereof” (priority 2004, published 2008).

“Also recorded” adds a separate entry of the source.

For “S2+ES: S2+ InsP3R-1, long splice variant with S1589E”, in assay [1], the “effect of forskolin treatment on CCh-induced [Ca^2+]i peak” value is reported as “marked potentiation; also recorded: markedly potentiated” and the “Ca^2+ release after PKA activation” value was “Enhanced”. For the same substance, in assay [2], the “effect of 8-Br cGMP treatment on CCh-induced Ca^2+ release” value (“effect of 8-Br cGMP treatment” for short) is recorded as “markedly potentiated” and the “Ca^2+ release after PKG activation” value is “enhanced”.
In the case of “S2+SE: phosphomimetic S2+ InsP3R-1, long splice variant of S1755E”, in assay [1], the “effect of forskolin treatment on CCh-induced [Ca^2+]i peak” value is listed as “no further potentiation” and the “Ca^2+ release after PKA activation” value is “No change”. Also, in assay [2], the “effect of 8-Br cGMP treatment” value was “no effect; also recorded: no potentiation” and the “Ca^2+ release after PKG activation” value is on record as “no change”.
Take “S2−WT: wild-type rat type-1 InsP3 receptor, peripheral short S2− splice variant (SEQ ID NO: 17)”: in assay [3] (10 μM 8-Br cGMP), the “effect of 8-Br cGMP treatment” value is given as “no effect”. Further, in assay [3] (S2 − InsP3R-1 constructs, Table 2), the “Ca^2+ release after PKG activation” value was “no change”.
